Key:
reo-3-virus = assay: Sanitization of a DEAE-Sephadex chromatography column contaminated with virus
Description: 1 g of DEAE-Sephadex A-50 (pre-swollen) was added as a slurry in 20 ml of PBS (pH 7.2) to 500 ml of a reo-3-virus-containing aqueous solution (cell culture supernatant with 5% FCS) having a virus titer (CCID50) of 5.5 log10. After stirring for 30 min at approximately 20° C., all the material was transferred to a chromatography column and, after sedimentation of the resin, the column was emptied. The resin was then washed with 150 ml of wash buffer (0.2 M NaCl, pH 6.0 by means of KH2PO4/NaOH) and finally eluted with elution buffer (2.0 M NaCl, pH 8.0 by means of KH2PO4/NaOH). For sanitization, the column was washed (in countercurrent) with 3 column volumes of a wash buffer containing carvacrol solution (1:2000) and allowed to stand overnight at approximately 20° C. under this carvacrol solution. The column was then regenerated with wash buffer.

[1] = system: non-cytopathogenic pestivirus strain in MDBK cell culture; assay: Sanitization of a cell culture: titration of cytopathogenic BVDV strain on treated MDBK indicator cells; type: cell-based
Description: The infection of the cell culture can be followed, inter alia, by the (fetal) calf serum necessary for cell culture.
An MDBK cell culture which is infected with a non-cytopathogenic pestivirus strain is passaged as is customary (splitting rate 1:5; Eagles Minimal Essential Medium containing 5% FCS) and two cell culture flasks are prepared. One cell culture flask remains untreated, the second cell culture flask is treated with thymol (1:50,000). Both cell culture flasks are passaged weekly, the treatment of the cell culture being carried out for 3 passages. After one passage without treatment, cells from the respective cell culture flasks are inoculated into microtiter plates and a titration (end point dilution method) of a cytopathogenic BVDV strain (Denmark) is carried out on the respective indicator cells. The cytopathogenic effect is evaluated as an indication of virus replication and the virus titer is calculated (Spaerman-Kärber method; Table 2).

[2] = carvacrol solution (1:2000) after about 16 hours' incubation at approximately 20° C. (12 ml)
[3] = wash buffer after sanitation with carvacrol, 2nd column volume (12 ml)

Row | SMILES | Virus load (Titer × volume) (reo-3-virus; [2]) | Virus titer (reo-3-virus; [2]) | Virus titer (reo-3-virus; carvacrol solution (1:2000) in wash buffer, 1st column volume (12 ml), titer determined immediately after obtaining the sample, starting material 5.5) | Virus load (Titer × volume) (reo-3-virus; carvacrol solution (1:2000), 1st column volume (12 ml), determined immediately after obtaining the sample, starting material 8.2) | Inactivation of reo-3-virus on the column (reo-3-virus; sanitization of DEAE-Sephadex column with carvacrol solution (1:2000) overnight) | Virus load (Titer × volume) (reo-3-virus; [3]) | Virus titer (reo-3-virus; [3]) | Virus titer of cytopathogenic BVDV strain (Denmark) on the indicator cells ([1]; MDBK cells infected with non-cytopathogenic pestivirus, 3 passages treated with thymol (1:50,000), then one passage without treatment, untreated 3.9, starting culture 4.3) | Inactivation of non-cytopathogenic pestivirus in MDBK cells ([1]; thymol (1:50,000), 3 passages)
1 | Cc1ccc(C(C)C)cc1O [Carvacrol solution, carvacrol] | ≦2.6 [log10] | ≦1.5 CCID50/ml[log10] | 4.2 CCID50/ml[log10] | 5.3 [log10] | complete inactivation of reo-3-virus below the detection limit | ≦2.6 [log10] | ≦1.5 CCID50/ml[log10] | – | –
2 | Cc1ccc(C(C)C)c(O)c1 [thymol] | – | – | – | – | – | – | – | 7.6 (CCID50ml) [log10] | the non-cytopathogenic pestivirus is inactivated
